Test results as given in US20230167181A1, “PHARMACEUTICAL COMPOSITIONS AND METHODS OF MANUFACTURE USING THERMALLY CONDUCTIVE EXCIPIENTS” (BOARD OF REGENTS, THE UNIVERSITY OF TEXAS SYSTEM, priority 2020, published 2023).

Test: Hot stage polarized light microscopy (HSPLM)
Type: physicochemical
Details: heat only, 130° C. or 160° C., FIG. 3
Description: Hot stage polarized light microscopy (HSPLM) and polarized light microscopy (PLM) were used to determine amorphous nature and visual interactions between excipients when melting. Samples were prepared by lightly spreading physical mixtures of the two compositions onto a glass slide. An Olympus BX60 microscope (Olympus Corp., Center Valley, Pa.) with Insight QE camera (Diagnostic Instruments, Inc., Sterling Heights, Mich.) was used for visual observation. […] Images were captured using Spot Advance Software (Diagnostic Instruments, Inc.).

SMILES: CS(=O)(=O)c1cc(C2(NC(=O)c3cncc4c3cnn4-c3ccc(F)cc3)CC2)ccn1 [BI-667]
- dissolving of BI-667 in HPMCAS-HMP when no mixing was applied: not dissolve
